Results on five compounds are retold here after PubChem BioAssay AID510.

Sequence of Dehydrogenase/reductase SDR family member 6 (Homo sapiens) (Q9BUT1 whole entry, looked up): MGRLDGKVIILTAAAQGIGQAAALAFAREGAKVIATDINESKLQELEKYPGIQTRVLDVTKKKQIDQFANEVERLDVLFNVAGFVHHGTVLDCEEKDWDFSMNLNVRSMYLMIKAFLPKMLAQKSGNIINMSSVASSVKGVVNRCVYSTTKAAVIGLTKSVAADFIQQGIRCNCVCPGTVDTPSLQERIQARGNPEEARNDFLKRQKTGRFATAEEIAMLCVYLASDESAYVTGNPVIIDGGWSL

This assay has as its target Dehydrogenase/reductase SDR family member 6 (Homo sapiens) (UniProt Q9BUT1). The experiment in a line: SDR family member 6 ligand binding, Tm shift – biophysical, DSF, SYPRO orange, purified human protein (AID 510). As to conditions: Purified DHRS6, DSF thermal shift, at 100 µM, protein 2 µM, buffer 10 mM HEPES, pH 7.5, NaCl 150 mM, stronger effect = higher value.
Consider `C=CC1=C(C)/C(=C/c2[nH]c(Cc3[nH]c(/C=C4\NC(=O)C(C)=C4C=C)c(C)c3CCC(=O)O)c(CCC(=O)O)c2C)NC1=O`, for which the Tm shift is 8.1 Celsius.

`O=C(C1CCN(S(=O)(=O)c2cccnc2)CC1)N1CCN(C(c2ccccc2)c2ccc(Cl)cc2)CC1` (stereo not given): the Tm shift worked out at 2.2 Celsius.

On to `O=C1C2(Cl)C3(Cl)C4(Cl)C(Cl)(Cl)C5(Cl)C3(Cl)C1(Cl)C5(Cl)C24Cl` (stereo not given), for which the Tm shift is 4.7 Celsius.

As to `NC(=O)c1ccc[n+](C2OC(COP(=O)(O)OP(=O)(O)OCC3OC(n4cnc5c(N)ncnc54)C(O)C3O)C(O)C2O)c1` (stereo not given), the Tm shift is 2.4 Celsius.

For the compound `O=c1oc2cc(O)ccc2c2oc3cc(O)ccc3c12`, the Tm shift came out at 2.2 Celsius.
